Measurements from ChEMBL document CHEMBL6127078, “Discovery of 7-(1-methyl-1H-pyrazol-4-yl)-1,6-naphthyridine derivatives as potent inhibitors of rearranged during transfection (RET) and RET solvent-front mutants for overcoming selpercatinib resistance” (Eur J Med Chem, 2024).

Tests used:
[1] = biological target: Proto-oncogene tyrosine-protein kinase receptor Ret (Homo sapiens, UniProt P07949); assay: Inhibition of wild type RET (unknown origin) by FRET-based ZLyte kinase assay
[2] = biological target: Proto-oncogene tyrosine-protein kinase receptor Ret (Homo sapiens, UniProt P07949, V804L); assay: Inhibition of RET V804L mutant (unknown origin) by FRET-based ZLyte kinase assay
[3] = biological target: Proto-oncogene tyrosine-protein kinase receptor Ret (Homo sapiens, UniProt P07949, G810R); assay: Inhibition of RET G810R mutant (unknown origin) by FRET-based ZLyte kinase assay
[4] = biological target: Proto-oncogene tyrosine-protein kinase receptor Ret (Homo sapiens, UniProt P07949, M918T); assay: Inhibition of RET M918T mutant (unknown origin) by FRET-based ZLyte kinase assay
[5] = system: Proto-oncogene tyrosine-protein kinase receptor Ret (Homo sapiens), P07949 [V804L]; assay: Potency index, ratio of Vandetanib IC50 to test compound IC50 for inhibition of RET V804L mutant (unknown origin) by FRET-based ZLyte kinase assay
[6] = system: Proto-oncogene tyrosine-protein kinase receptor Ret (Homo sapiens), P07949 [G810R]; assay: Potency index, ratio of Vandetanib IC50 to test compound IC50 for inhibition of RET G810R mutant (unknown origin) by FRET-based ZLyte kinase assay
BaF3 [7] = assay: Antitumor activity against mouse BaF3 cells harbouring KIF5B-RET-wild type xenografted in mouse model assessed as tumor growth inhibition at 10 mg/kg BID measured upto 14 days relative to control; assay type: functional; details: BaF3, 336 h, time <= 14 day, read-out: TGI
BaF3 [8] = assay: Antiproliferative activity against mouse BaF3 cells harbouring CCDC6-RET wild type assessed as inhibition of cell viability; assay type: functional, cell-based
BaF3 [9] = assay: Antiproliferative activity against mouse BaF3 cells harbouring KIF5B-RET wild type assessed as inhibition of cell viability; assay type: functional, cell-based
BaF3 [10] = assay: Antiproliferative activity against mouse BaF3 cells harbouring CCDC6-RET G810R mutant assessed as inhibition of cell viability; assay type: functional, cell-based
BaF3 [11] = assay: Antitumor activity against mouse BaF3 cells harbouring KIF5B-RET G810R mutant xenografted in mouse model assessed as tumor growth inhibition at 10 mg/kg BID measured upto 14 days relative to control; assay type: functional; details: BaF3, 336 h, time <= 14 day, read-out: TGI
BaF3 [12] = assay: Antiproliferative activity against mouse BaF3 cells harbouring KIF5B-RET V804L mutant assessed as inhibition of cell viability; assay type: functional, cell-based
BaF3 [13] = assay: Antiproliferative activity against mouse BaF3 cells harbouring KIF5B-RET G810R mutant assessed as inhibition of cell viability; assay type: functional, cell-based
[14] = system: Proto-oncogene tyrosine-protein kinase receptor Ret (Homo sapiens), P07949 [G810R]; assay: Potency index, ratio of selpercatinib IC50 to test compound IC50 for inhibition of RET G810R mutant (unknown origin) by FRET-based ZLyte kinase assay

Sequence of Proto-oncogene tyrosine-protein kinase receptor Ret (Homo sapiens, UniProt P07949, M918T) (P07949 29-1114 M918T limits assumed): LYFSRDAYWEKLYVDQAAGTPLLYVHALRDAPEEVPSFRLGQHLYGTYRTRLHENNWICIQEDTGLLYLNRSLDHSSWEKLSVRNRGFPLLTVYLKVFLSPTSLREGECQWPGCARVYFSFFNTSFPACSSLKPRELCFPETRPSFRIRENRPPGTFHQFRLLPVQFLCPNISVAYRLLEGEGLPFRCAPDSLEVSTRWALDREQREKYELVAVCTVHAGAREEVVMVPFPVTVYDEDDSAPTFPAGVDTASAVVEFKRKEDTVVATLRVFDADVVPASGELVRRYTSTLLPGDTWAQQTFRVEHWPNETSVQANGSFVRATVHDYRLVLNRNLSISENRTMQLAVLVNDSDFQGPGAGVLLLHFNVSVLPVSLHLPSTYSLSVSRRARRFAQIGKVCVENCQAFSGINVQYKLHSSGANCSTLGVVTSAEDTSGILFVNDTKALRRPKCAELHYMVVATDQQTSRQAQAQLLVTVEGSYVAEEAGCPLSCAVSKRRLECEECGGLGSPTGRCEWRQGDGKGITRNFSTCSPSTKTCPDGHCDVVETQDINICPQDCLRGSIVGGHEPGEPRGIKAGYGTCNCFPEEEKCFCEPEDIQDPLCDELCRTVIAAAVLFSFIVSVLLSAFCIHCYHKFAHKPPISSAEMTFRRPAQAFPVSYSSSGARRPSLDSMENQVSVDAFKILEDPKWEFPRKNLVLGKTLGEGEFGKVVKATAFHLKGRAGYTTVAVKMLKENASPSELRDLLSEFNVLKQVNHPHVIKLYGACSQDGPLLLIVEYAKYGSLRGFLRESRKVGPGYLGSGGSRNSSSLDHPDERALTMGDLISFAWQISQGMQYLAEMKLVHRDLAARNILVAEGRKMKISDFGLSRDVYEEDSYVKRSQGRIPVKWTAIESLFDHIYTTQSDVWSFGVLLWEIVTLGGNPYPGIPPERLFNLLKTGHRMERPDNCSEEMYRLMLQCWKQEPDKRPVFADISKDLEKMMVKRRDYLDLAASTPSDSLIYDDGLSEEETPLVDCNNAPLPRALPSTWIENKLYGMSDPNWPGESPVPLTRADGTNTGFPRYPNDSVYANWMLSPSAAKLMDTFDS
Sequence of Proto-oncogene tyrosine-protein kinase receptor Ret (Homo sapiens, UniProt P07949, V804L) (P07949 29-1114 V804L limits assumed): as the sequence (P07949 29-1114 M918T limits assumed) above, with V776L, T890M counted along it
Sequence of Proto-oncogene tyrosine-protein kinase receptor Ret (Homo sapiens, UniProt P07949) (P07949 whole entry): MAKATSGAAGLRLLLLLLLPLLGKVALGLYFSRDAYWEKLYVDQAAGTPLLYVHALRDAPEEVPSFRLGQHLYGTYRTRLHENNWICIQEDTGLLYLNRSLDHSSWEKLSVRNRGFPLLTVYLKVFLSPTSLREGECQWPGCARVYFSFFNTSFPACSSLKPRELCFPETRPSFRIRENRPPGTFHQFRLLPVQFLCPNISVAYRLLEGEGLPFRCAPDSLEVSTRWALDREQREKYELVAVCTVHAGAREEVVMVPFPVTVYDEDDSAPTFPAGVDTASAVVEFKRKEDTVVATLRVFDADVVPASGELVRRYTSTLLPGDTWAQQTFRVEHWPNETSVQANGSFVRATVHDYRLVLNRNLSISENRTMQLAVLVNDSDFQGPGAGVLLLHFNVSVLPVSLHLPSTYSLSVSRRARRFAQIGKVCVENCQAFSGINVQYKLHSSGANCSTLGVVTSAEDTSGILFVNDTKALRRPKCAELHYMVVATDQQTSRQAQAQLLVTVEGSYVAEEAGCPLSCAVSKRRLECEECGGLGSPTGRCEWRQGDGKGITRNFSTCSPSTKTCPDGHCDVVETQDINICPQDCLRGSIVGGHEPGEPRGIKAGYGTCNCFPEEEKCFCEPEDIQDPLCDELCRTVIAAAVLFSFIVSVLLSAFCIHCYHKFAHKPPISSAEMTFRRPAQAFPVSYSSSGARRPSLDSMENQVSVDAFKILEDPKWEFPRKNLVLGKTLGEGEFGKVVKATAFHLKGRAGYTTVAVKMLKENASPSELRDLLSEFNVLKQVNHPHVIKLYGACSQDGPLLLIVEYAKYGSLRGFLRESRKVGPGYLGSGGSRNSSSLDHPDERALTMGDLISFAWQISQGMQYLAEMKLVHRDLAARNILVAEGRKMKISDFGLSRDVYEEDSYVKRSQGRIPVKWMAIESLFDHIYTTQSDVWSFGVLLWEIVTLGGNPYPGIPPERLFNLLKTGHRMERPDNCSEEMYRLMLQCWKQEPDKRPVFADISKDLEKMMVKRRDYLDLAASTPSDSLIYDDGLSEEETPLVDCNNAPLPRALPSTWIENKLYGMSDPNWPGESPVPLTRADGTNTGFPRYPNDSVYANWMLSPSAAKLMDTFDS
Sequence of Proto-oncogene tyrosine-protein kinase receptor Ret (Homo sapiens, UniProt P07949, G810R) (P07949 29-1114 G810R limits assumed): as the sequence (P07949 29-1114 M918T limits assumed) above, with G782R, T890M counted along it
Sequence of Proto-oncogene tyrosine-protein kinase receptor Ret (Homo sapiens), P07949 [G810R] (P07949 whole entry G810R): as the sequence (P07949 whole entry) above, with G810R counted along it
Sequence of Proto-oncogene tyrosine-protein kinase receptor Ret (Homo sapiens), P07949 [V804L] (P07949 whole entry V804L): as the sequence (P07949 whole entry) above, with V804L counted along it

Row | SMILES | IC50 [1] [nM] | IC50 [2] [nM] | IC50 [3] [nM] | IC50 [4] [nM] | also measured
1 | COc1ccc(CN2C3CC2CN(c2ccc(-c4nccc5ncccc45)cn2)C3)cn1 | 57.6 | 42.2 | 186 | 35.8 | Ratio IC50 [5]: 16; Ratio IC50 [6]: 4
2 | COc1ccc(CN2C3CC2CN(c2ccc(-c4nc(C)cc5ncccc45)cn2)C3)cn1 | 28.5 | 18.6 | 416 | 33.6 | 
3 | COc1ccc(CN2C3CC2CN(c2ccc(-c4cc(OCC(C)(C)O)cn5ncc(C#N)c45)cn2)C3)cn1 [SELPERCATINIB] |  |  |  |  | inhibition in vivo at 10 mg/kg (BaF3 [7]): 89%; IC50 (BaF3 [8]): 9.5 nM; IC50 (BaF3 [9]): 8.2 nM; IC50 (BaF3 [10]): 896 nM; inhibition in vivo at 10 mg/kg (BaF3 [11]): 20%; IC50 (BaF3 [12]): 17.8 nM; IC50 (BaF3 [13]): 2170 nM
4 | COc1ccc(CN2C3CC2CN(c2ccc(-c4nc(-c5cnn(C)c5)cc5ncccc45)cn2)C3)cc1Cl | 25.1 | 8.5 | 85.9 | 11.3 | 
5 | COc1ccc(CN2C3CC2CN(c2ccc(-c4nc(-c5cnn(C)c5)cc5ncccc45)cn2)C3)cc1[N+](=O)[O-] | 247 | 95.2 |  | 127 | 
6 | COc1ccc(CN2C3CC2CN(c2ccc(-c4nc(-c5ccn(C)n5)cc5ncccc45)cn2)C3)cn1 | 49.4 | 21.1 | 96.7 | 50.4 | 
7 | COc1ccc(CN2C3CC2CN(c2ccc(-c4cccc5ncccc45)cn2)C3)cn1 | 198 | 285 |  | 304 | 
8 | COc1ccc(CN2C3CC2CN(c2ccc(-c4cccc5ncncc45)cn2)C3)cn1 | 86.3 | 70.4 | 307 | 91.5 | 
9 | COc1ccc(CN2C3CC2CN(c2ccc(-c4cccc5cnccc45)cn2)C3)cn1 | 591 | 786 |  | 615 | 
10 | COc1ccc(CN2C3CC2CN(c2ccc(-c4cccc5nccnc45)cn2)C3)cn1 | 172 | 135 |  | 141 | 

The next lines start with results.

Row | IC50 [1] [nM] | IC50 [2] [nM] | IC50 [3] [nM] | IC50 [4] [nM] | SMILES | also measured
11 | 5.7 | 2.6 | 132 | 4.9 | COc1ccc(CC(=O)N2C3CC2CN(c2ccc(-c4nc(-c5cnn(C)c5)cc5ncccc45)cn2)C3)cn1 | 
12 | 7.6 | 3.1 | 114 | 4.7 | COc1ccc(CN2C3CC2CN(c2ccc(-c4nc(-c5cnn(C)c5)cc5ncccc45)cn2)C3)cc1 | 
13 | 15.7 | 12.5 | 538 | 17.3 | COc1ccc(CN2C3CC2CN(c2ccc(-c4nc(C5CC5)cc5ncccc45)cn2)C3)cn1 | 
14 | 6.7 | 4.7 | 221 | 6.7 | Cn1cc(-c2cc3ncccc3c(-c3ccc(N4CC5CC(C4)N5C(=O)Cc4cc(F)cc(F)c4)nc3)n2)cn1 | 
15 | 4.8 | 2.3 | 149 | 3 | Cn1cc(-c2cc3ncccc3c(-c3ccc(N4CC5CC(C4)N5C(=O)Cc4cccc(F)c4)nc3)n2)cn1 | 
16 | 9.1 | 4 | 180 | 5.9 | Cn1cc(-c2cc3ncccc3c(-c3ccc(N4CC5CC(C4)N5C(=O)Cc4cccc(Cl)c4)nc3)n2)cn1 | 
17 | 3.8 | 0.4 | 56.2 | 1.2 | COc1ccc(CN2C3CC2CN(c2ccc(-c4nc(-c5cnn(C)c5)cc5ncccc45)cn2)C3)cn1 | Ratio IC50 [14]: 4
